Data taken from US11654199B2 (BOLT BIOTHERAPEUTICS, INC., priority 2019, dated 2023).

Legend:
human TLR8 = target: T1, human TLR8 (Homo sapiens, UniProt Q9NR97); assay: HEK293 NFKB reporter assay, human TLR8; format: cell-based; conditions: HEK293 NFKB reporter cells expressing human TLR8; read-out: HEK293 hTLR8 EC50
T1 construct: host or cells: HEK293 reporter cells
T1 sequence (Q9NR97 27-1041): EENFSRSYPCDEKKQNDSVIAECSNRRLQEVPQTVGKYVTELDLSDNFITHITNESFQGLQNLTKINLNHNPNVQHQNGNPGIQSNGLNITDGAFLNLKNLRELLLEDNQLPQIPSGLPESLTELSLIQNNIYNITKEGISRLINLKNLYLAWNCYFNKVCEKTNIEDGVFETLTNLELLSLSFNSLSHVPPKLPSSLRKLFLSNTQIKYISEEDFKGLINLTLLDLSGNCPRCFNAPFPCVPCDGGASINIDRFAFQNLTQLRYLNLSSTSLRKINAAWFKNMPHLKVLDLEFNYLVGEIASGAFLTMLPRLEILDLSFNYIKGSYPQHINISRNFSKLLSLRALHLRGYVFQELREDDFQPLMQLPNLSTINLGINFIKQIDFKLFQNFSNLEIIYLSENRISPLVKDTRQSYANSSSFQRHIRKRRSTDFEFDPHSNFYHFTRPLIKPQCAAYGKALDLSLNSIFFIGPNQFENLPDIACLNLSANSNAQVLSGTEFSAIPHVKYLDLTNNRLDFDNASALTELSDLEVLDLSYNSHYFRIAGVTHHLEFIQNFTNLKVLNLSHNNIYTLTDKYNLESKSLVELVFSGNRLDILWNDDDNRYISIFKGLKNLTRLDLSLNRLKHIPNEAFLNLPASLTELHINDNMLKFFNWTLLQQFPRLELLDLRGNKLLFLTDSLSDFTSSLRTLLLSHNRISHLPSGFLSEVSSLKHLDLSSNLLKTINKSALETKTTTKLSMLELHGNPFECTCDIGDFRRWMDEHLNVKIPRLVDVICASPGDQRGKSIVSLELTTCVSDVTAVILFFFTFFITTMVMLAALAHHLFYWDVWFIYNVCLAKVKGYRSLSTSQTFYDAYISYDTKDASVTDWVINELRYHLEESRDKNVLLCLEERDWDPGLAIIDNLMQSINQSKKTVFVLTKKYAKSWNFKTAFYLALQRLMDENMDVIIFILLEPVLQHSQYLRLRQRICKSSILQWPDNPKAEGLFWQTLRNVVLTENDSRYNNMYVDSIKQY
Procedure: (§1) Each compound was synthesized, purified, and characterized by mass spectrometry and shown to have the mass indicated. Additional experimental procedures are found in the Examples. Activity against HEK293 NFKB reporter cells expressing human TLR7 or human TLR8 was measured according to Example 202.
(§2) HEK293 reporter cells expressing human TLR7 or human TLR8 were purchased from Invivogen and vendor protocols were followed for cellular propagation and experimentation. Briefly, cells were grown to 80-85% confluence at 5% CO2 in DMEM supplemented with 10% FBS, Zeocin, and Blasticidin. Cells were then seeded in 96-well flat plates at 4×10^4 cells/well with substrate containing HEK detection medium and immunostimulatory molecules. Activity was measured using a plate reader at 620-655 nm wavelength.

human TLR7 = target: T2, human TLR7 (Homo sapiens, UniProt Q9NYK1); assay: HEK293 NFKB reporter assay, human TLR7; format: cell-based; conditions: HEK293 NFKB reporter cells expressing human TLR7; read-out: HEK293 hTLR7 EC50
T2 construct: host or cells: HEK293 reporter cells
T2 sequence (Q9NYK1 27-1049): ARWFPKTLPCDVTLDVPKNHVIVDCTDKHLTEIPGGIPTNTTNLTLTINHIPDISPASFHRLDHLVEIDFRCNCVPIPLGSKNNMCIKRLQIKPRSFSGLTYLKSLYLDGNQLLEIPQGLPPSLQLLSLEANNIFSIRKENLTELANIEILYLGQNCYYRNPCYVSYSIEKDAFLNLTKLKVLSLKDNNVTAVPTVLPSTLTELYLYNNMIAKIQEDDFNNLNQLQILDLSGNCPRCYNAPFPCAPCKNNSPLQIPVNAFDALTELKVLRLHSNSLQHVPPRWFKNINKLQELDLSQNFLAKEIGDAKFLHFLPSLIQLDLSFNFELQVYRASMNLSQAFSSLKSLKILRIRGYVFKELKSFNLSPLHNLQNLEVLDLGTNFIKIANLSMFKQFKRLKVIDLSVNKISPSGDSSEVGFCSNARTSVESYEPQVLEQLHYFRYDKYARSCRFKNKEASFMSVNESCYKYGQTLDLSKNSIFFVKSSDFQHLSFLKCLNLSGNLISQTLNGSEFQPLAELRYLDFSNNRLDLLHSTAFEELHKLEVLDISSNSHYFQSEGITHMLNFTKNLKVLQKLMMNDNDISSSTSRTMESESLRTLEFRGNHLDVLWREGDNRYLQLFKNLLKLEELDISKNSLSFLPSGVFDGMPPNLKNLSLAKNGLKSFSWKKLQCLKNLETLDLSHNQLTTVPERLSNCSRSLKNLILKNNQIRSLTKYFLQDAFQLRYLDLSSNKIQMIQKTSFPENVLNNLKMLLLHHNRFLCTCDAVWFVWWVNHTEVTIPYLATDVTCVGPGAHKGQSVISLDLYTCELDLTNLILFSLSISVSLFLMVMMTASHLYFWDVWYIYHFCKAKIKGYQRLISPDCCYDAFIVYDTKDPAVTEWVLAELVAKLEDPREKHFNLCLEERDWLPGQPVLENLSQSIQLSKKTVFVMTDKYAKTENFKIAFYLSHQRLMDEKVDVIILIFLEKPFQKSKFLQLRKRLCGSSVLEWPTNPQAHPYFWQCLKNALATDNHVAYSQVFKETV
Procedure: as §1, §2

SMILES | EC50 (human TLR8) [µM] | EC50 (human TLR7) [µM]
CCCN(NCC)C(=O)C1=Cc2sccc2N=C(N)C1 [TAZ-85] | 4.03 | > 9
CCCNN(CC)C(=O)C1=Cc2sccc2N=C(N)C1 [TAZ-86] | 4.92 | > 9
CCCN(CCC)C(=O)C1=Cc2sc(CNC(=O)CCN)cc2N=C(N)C1 [TAZ-90] | 3.19 | 0.909
CCCN(CCC)C(=O)C1=Cc2sc(CNC(=O)CCNC(=O)OC(C)(C)C)cc2N=C(N)C1 [TAZ-91] | 4.15 | 4.28
CCCN(CCC)C(=O)C1=Cc2sc(CNC(=O)CNC(=O)OC(C)(C)C)cc2N=C(N)C1 [TAZ-93] | 3.13 | 4.49
CCCN(CCC)C(=O)C1=Cc2sc(CO)cc2N=C(N)C1 [TAZ-99] | 3.62 | > 9
CCCN(CCc1ccc(OC)cc1)C(=O)C1=Cc2sc(CCCCCNC(=O)OC(C)(C)C)cc2N=C(N)C1 [TAZ-106] | > 9 | 4.73
CCCN(CCc1ccc(OC)cc1)C(=O)C1=Cc2sc(CCCCCN)cc2N=C(N)C1 [TAZ-107] | 6.98 | 3.58
CCCN(CCC)C(=O)C1=Cc2sc(CCCCCNC(=O)CCOC)cc2N=C(N)C1 [TAZ-108] | 3.47 | 3.85
CCCN(C(=O)C1=Cc2sc(CCCCCN)cc2N=C(N)C1)C1CC1 [TAZ-122] | 3.24 | 3.35
CCCN(CCC)C(=O)C1=Cc2sc(CC(=O)OC)cc2N=C(N)C1 [TAZ-134] | 3.42 | 4.7
CCCN(CCCNC(=O)C(C)(C)C)C(=O)C1=Cc2sc(CCCCCNC(=O)OC(C)(C)C)cc2N=C(N)C1 [TAZ-141] | 3.58 | 0.38
CCCN(Cc1ccc(CN(C)C)c(C(F)(F)F)n1)C(=O)C1=Cc2sc(CCCCCN)cc2N=C(N)C1 [TAZ-145] | 4.01 | 5.94
CCCN(CCCNC(=O)OC1CCC1)C(=O)C1=Cc2sc(C#CC3CCNCC3)cc2N=C(N)C1 [TAZ-164] | 3.89 | 0.476
CCCN(CCCNC(=O)OC1CCC1)C(=O)C1=Cc2sc(CCC3CCNCC3)cc2N=C(N)C1 [TAZ-166] | 3.7 | 0.802
CCCN(CCCNC(=O)NCC)C(=O)C1=Cc2sc(CCCCCNC(=O)OC(C)(C)C)cc2N=C(N)C1 [TAZ-170] | 3.37 | 0.282
CCCN(CCCNC(=O)OC1CCC1)C(=O)C1=Cc2sc(CN)cc2N=C(N)C1 [TAZ-171] | 3.13 | 5.29
CCCN(CCCNC(=O)OC1CCC1)C(=O)C1=Cc2sc(-c3cn[nH]c3)cc2N=C(N)C1 [TAZ-172] | 3.7 | 0.153
CCCN(CCCNC(=O)OC1CCC1)C(=O)C1=Cc2sc(CC3CCN(C(=O)OC(C)(C)C)CC3)cc2N=C(N)C1 [TAZ-177] | 3.4 | 0.882

These reach a lower EC50 (human TLR8). Values come first.

EC50 (human TLR8) [µM] | EC50 (human TLR7) [µM] | SMILES
3.01 | 0.586 | CCCN(CCCNC(=O)OC(C)(C)C)C(=O)C1=Cc2sc(CCCCCN)cc2N=C(N)C1 [TAZ-133, tert-butyl (3-(5-amino-2-(5-aminopentyl)-N-propyl-6H-thieno[3,2-b]azepine-7-carboxamido)propyl)carbamate]
2.86 | 1.28 | CCCN(Cc1ccc(CN(C)C)cc1C(F)(F)F)C(=O)C1=Cc2sc(CCCCCN)cc2N=C(N)C1 [TAZ-144]
2.27 | > 9 | CCCN(C(=O)C1=Cc2sccc2N=C(N)C1)C(C)c1ccc(CN)cc1 (stereo not drawn) [TAZ-88]
2.24 | 0.534 | CCCN(OCCNC(=O)CC(C)(C)C)C(=O)C1=Cc2sc(CCCCCN)cc2N=C(N)C1 [TAZ-149]
1.94 | 1.73 | CCCN(CC1CC1)C(=O)C1=Cc2sc(CCCCCN)cc2N=C(N)C1 [TAZ-124]
1.67 | 1.99 | CCCN(OCCNC(=O)CC(C)(C)C)C(=O)C1=Cc2sc(CCCCCNC(=O)OC(C)(C)C)cc2N=C(N)C1 [TAZ-150]
1.64 | 5.81 | CCCN(OCC)C(=O)C1=Cc2sc(C#CC3CCNCC3)cc2N=C(N)C1 [TAZ-174]
1.44 | 3.17 | CCCN(Cc1cnc(CN)c(C(F)(F)F)c1)C(=O)C1=Cc2sccc2N=C(N)C1 [TAZ-104]
1.38 | 3.82 | CCCN(OCC(F)(F)F)C(=O)C1=Cc2sccc2N=C(N)C1 [TAZ-103]
1.37 | 4.95 | CCCN(CCC)C(=O)C1=Cc2sc(CN)cc2N=C(N)C1 [TAZ-84]
1.25 | 1.24 | CCCN(CCCNC(=O)OCc1ccccc1)C(=O)C1=Cc2sc(CCCCCNC(=O)OC(C)(C)C)cc2N=C(N)C1 [TAZ-162]
0.93 | 0.922 | CCCN(OCC)C(=O)C1=Cc2sc(CC3CN(C(=O)OC(C)(C)C)C3)cc2N=C(N)C1 [TAZ-184]
0.848 | 5.57 | CCCN(CCC)C(=O)C1=Cc2sc(CN3CCN(C)CC3)cc2N=C(N)C1 [TAZ-129]
0.84 | 0.101 | CCCN(CCCNC(=O)OC1CCC1)C(=O)C1=Cc2sc(CC3CN(C(=O)OC(C)(C)C)C3)cc2N=C(N)C1 [TAZ-182]
0.633 | 0.95 | CCCN(CC1CCC1)C(=O)C1=Cc2sc(CCCCCN)cc2N=C(N)C1 [TAZ-126]
0.485 | 3.56 | CCCN(OCC)C(=O)C1=Cc2sc(CC3CNC3)cc2N=C(N)C1 [TAZ-183, 5-amino-2-(azetidin-3-ylmethyl)-N-ethoxy-N-propyl-6H-thieno[3,2-b]azepine-7-carboxamide]
0.474 | 4.18 | CCCN(OCC)C(=O)C1=Cc2sc(CCC3CCN(C(=O)OC(C)(C)C)CC3)cc2N=C(N)C1 [TAZ-175]
0.384 | 0.793 | CCCN(CCC)C(=O)C1=Cc2sc(CCCCCN(C)C)cc2N=C(N)C1 [TAZ-102]
0.326 | 2.96 | CCCN(Cc1ccc(CO)cc1)C(=O)C1=Cc2sccc2N=C(N)C1 [TAZ-96]
0.249 | 0.915 | CCCN(OCC)C(=O)C1=Cc2sc(CCC3CCNCC3)cc2N=C(N)C1 [TAZ-176, 5-amino-N-ethoxy-2-[2-(4-piperidyl)ethyl]-N-propyl-6H-thieno[3,2-b]azepine-7-carboxamide]
0.214 | 1.94 | CCCN(Cc1ccc(CN(C)C)cc1)C(=O)C1=Cc2sccc2N=C(N)C1 [TAZ-87]
0.124 | 0.714 | CCCN(OCC)C(=O)C1=Cc2sc(CC3CCNCC3)cc2N=C(N)C1 [TAZ-178]
0.101 | 6.2 | CCCN(OCC)C(=O)C1=Cc2sc(CN3CCNCC3)cc2N=C(N)C1 [TAZ-94]
